Measurements from patent US20230076977A1, “UTROPHIN UPREGULATION COMPOUNDS FOR DUCHENNE MUSCULAR DYSTROPHY THERAPY” (THE TRUSTEES OF THE UNIVERSITY OF PENNSYLVANIA, priority 2020, published 2023).
Read-outs that look alike come from different tables or passages of the source. Starred links: 1 amine or outer side, 2 acyl side, 3 side chain; linkers in the order of their positions; H or OH if unused. Positions of bridges follow the written chain, without caps; N, C: chain ends. Non-standard residues stand in square brackets, D forms with d. Residues, ends and D or L forms follow the SMILES beside them. Chains are numbered I, II in the order given. Hexamethylenediamine = C(CCCN[*:2])CCN[*:1]; Dip = N[C@H](C(=O)O)C(c1ccccc1)c1ccccc1; Chg = N[C@H](C(=O)O)C1CCCCC1; NMeA = CN[C@@H](C)C(=O)O

What was measured:
Type in all cases: cell-based
[1] = test system: utrophin protein in C2C12 cells; experiment: Utrophin western blot in C2C12 cells (endogenous protein expression); conditions: for Utrophin protein levels, fold increase: 1 μM, 24 hours, normalized to tubulin, vs 0.1% DMSO control; for utrophin protein levels in a separate assay (data not shown): hits with H2LPS equal to 0
Description: The 10 highest scoring hits were selected from this subset for performing in vitro validation. C2C12 cells were treated with 1 μM concentrations of the selected hits for 24 hours, followed by western blot evaluation of utrophin levels as an orthogonal assay for endogenous protein expression. […] Panobinostat, an FDA-approved non-selective HDAC inhibitor for cancer treatment, increased utrophin levels by 1.9-fold. […] AR-42 (S2244), another HDAC inhibitor with proven preclinical efficacy in contrasting cancer-induced cachexia, increased utrophin by 2.3-fold and had the second highest H2LPS. Consistent with the calculated HPS, the highest scoring hit, TSA (S1045), had also the highest magnitude of protein upregulation (3.9-fold) followed by PCI-24781 (S1090; 3.7-fold). Importantly, high H2LPS was generally correlated with confirmation in WB assays (FIG. 2E).
Total RNA was extracted from TA muscle samples with RNAeasy kit (Qiagen, USA) and reverse transcribed with random hexamers. qPCR was performed using Taqman probes for Utrophin (Assay ID Mm01168846_ml) and β-actin. Muscle tissue samples were lysed with TNEC buffer (50 mM Tris-HCl, pH 8.0; 150 mMNaCl; 1% NP40; 2 mM EDTA) buffer containing complete protease inhibitor cocktail (Roche, Basel, Switzerland). C2C12 cells were treated for 24 h with 1 μM concentrations of compounds from a fresh batch (3 wells for each compound), and cell samples were lysed with RIPA buffer with protease inhibitor cocktail. The experiment was repeated three independent times. 50-75 μg of total proteins from muscle tissues, or 4 μg of cell protein extracts, were resolved on a 3-8% Tris-Acetate gradient gel (NuPage; Invitrogen), transferred to PDVF or nitrocellulose membranes and mouse monoclonal anti-utrophin antibody MANCHO3 clone 8A4 (developed by Glenn E. Morris and obtained from the Developmental Studies Hybridoma Bank, Iowa) or a custom-made anti-UtrophinA rabbit polyclonal antibody (muscle tissue samples) generated and described previously by Chakkalakal et al., Nucleic Acids Res. 36, 826-838 (2008), which is incorporated herein by reference in its entirety.
TSA is a broad-spectrum HDAC inhibitor. […] To further validate in vitro the dose-dependent capacity of TSA to upregulate utrophin protein, C2C12 cells were treated for 24 hours with increasing concentrations of TSA (from 1 nM to 10 μM) (FIG. 3B). Consistent with the single-dose western blot validation experiments, utrophin protein levels were increased 4.3 times by 1 μM TSA. […] Some cytotoxicity was evident for TSA concentrations higher than 1 μM.

[2] = test system: 5′- and 3′-UTRs of human utrophin; experiment: Screening assay: C2C12 stable reporter line, CMV-driven luciferase flanked by utrophin 5′ and 3′ UTRs; conditions: for Upper-lower limits scoren: difference between upper and lower boundaries of the fitted dose-response screening curve; for Fold diff: fold difference between the EC50s of screening and counterscreening
Description: (§1) The construct for the HTS assay was generated by cloning the 5′- and 3′-UTRs of human utrophin into pGL4:50-hygro (Promega, Madison, Wis.) at the 5′ and 3′ of the luciferase coding sequence and has been described previously by Moorwood. […] For the counterscreening assay, the pGL4:50-hygro plasmid was used alone. Low passage C2C12 cells obtained from ATCC were transfected with either constructs, stably selected with 500 μg/mL hygromycin and subcloned using two rounds of serial dilutions to isolate single cell-derived colonies in a 96 wells plate format. […] The selected clones were cultured in presence of 100 μg/mL hygromycin B and were transferred to the HTS Facility at the University of Pennsylvania for implementation into a 384-wells format suitable for HTS.
(§2) The construct for generating the screening C2C12 cell line carrying the 5′ and 3′UTR of the human utrophin gene is described by Moorwood. […] Some compounds could increase light emission independently from the 5′ and 3′UTR regions, i.e., by activating the CMV promoter or increasing overall mRNA synthesis. Therefore, in order to distinguish such compounds, a counterscreening cell line stably expressing only the CMV-driven luciferase gene was generated (FIG. 1A). To determine optimal conditions for the implementation in a 384-wells high-throughput format, evaluated were DMSO tolerance, optimal cell density and incubation time (FIG. 5A-5C).
(§3) A first criterion for evaluating the performance of the selected hits was whether their activity was dose-dependent. After performing a dose-response analysis (5 nM to 10 μM) of each hit in the screening cell line, a clustering approach was applied (complete linkage with Euclidean distance measurement) to highlight similarities between compounds profiles. […] By modeling each dose-response trace with a 4-parameter logistic model applied to the Z— score values (FIG. 2B), the EC50 of each molecule was calculated.
(§4) Cells were allowed to attach overnight at 37° C., 5% CO2 in a humidified chamber. […] Compounds were added to a final concentration of 1 μM and 100 nM in 0.2% DMSO. Columns 1 and 23 were treated with 0.2% DMSO (negative control). Columns 2 and 24 were treated with 100 nM Panobinostat (positive control). Cells were incubated for 24 hours at 37° C., 5% CO2. […] Luminescence was measured on an EnVisionXcite Multilabel Plate Reader (PerkinElmer), using ultrasensitive luminescence measurement technology.

[3] = test system: CMV-driven luciferase gene; experiment: Counterscreening assay: C2C12 line stably expressing only the CMV-driven luciferase gene; conditions: for luciferase activity in the counterscreening assay: dose-response 5 nM to 10 μM, FIG. 6
Description: as §1, §2, §3, §4

[4] = C2C12, 4-parameter logistic fit of Z-scores, 24 h, no unit in table (0.013 = 13 nM), read-out: EC50 screen
[5] = C2C12, read-out: EC50 score (1 to 4)
[6] = 4-parameter logistic fit of Z-scores, 24 h, no unit in table (0.013 = 13 nM), read-out: EC50 screen

Row | Molecule | EC50 [2, 4] | EC50 [2, 5] | Upper-lower limits scoren [2] | Fold diff [2] | other results
1 | CC(C)[C@H](C(=O)Nc1ccc(C(=O)NO)cc1)c1ccccc1 [AR-42] | 369 nM | 100 to 1000 nM | 59.94 | 14.72 | Utrophin protein levels, fold increase [1]: 2.3 fold
2 | CC(=O)O/N=C1/C(=C2/C(=O)Nc3cc(Br)ccc32)Nc2ccccc21 [BIO-acetoxime] |  |  | 13.04 | 0.65 | EC50 [2, 6]: 330 nM
3 | O=C1Nc2cc(Br)ccc2/C1=C1/Nc2ccccc2/C1=N\O [BIO] |  |  | 12 |  | 
4 | CN[C@@H](C)C(=O)N[C@H](C(=O)N1CCC[C@H]1C(=O)N[C@H](C(=O)NCCCCCCNC(=O)[C@@H](NC(=O)[C@@H]1CCCN1C(=O)[C@@H](NC(=O)[C@H](C)NC)C1CCCCC1)C(c1ccccc1)c1ccccc1)C(c1ccccc1)c1ccccc1)C1CCCCC1 [BV-6] (I: H-[NMeA][Chg]P[Dip] / II: H-[NMeA][Chg]P[Dip]; linker I:C-II:C via Hexamethylenediamine) |  |  | 7.00 | High | EC50 [2, 6]: 99 nM
5 | O=C(/C=C/c1cccc(S(=O)(=O)Nc2ccccc2)c1)NO [Belinostat] | 342 nM | 100 to 1000 nM | 43.41 | High | 
6 | C#Cc1cccc(Nc2ncnc3cc(OC)c(OCCCCCCC(=O)NO)cc23)c1 [CUDC-101] | 1990 nM | > 1000 nM | 34.34 | High | 
7 | COc1ccc(-c2nc(N3CCOCC3)c3sc(CN(C)c4ncc(C(=O)NO)cn4)cc3n2)cn1 [CUDC-907] |  | < 50 nM |  |  | luciferase activity in the counterscreening assay [3]: significant luciferase activity
8 | CCN(CC)Cc1ccc2cc(COC(=O)Nc3ccc(C(=O)NO)cc3)ccc2c1 [Givinostat] | 269 nM | 100 to 1000 nM | 46.59 | 18.69 | Utrophin protein levels, fold increase [1]: 2.2 fold
9 | O=C1Cc2c([nH]c3ccc(Br)cc23)-c2ccccc2N1 [Kenpaullone] | 34 nM | < 50 nM | 12.92 | 6.97 | 
10 | O=C(/C=C/c1ccc(CN(CCO)CCc2c[nH]c3ccccc23)cc1)NO [LAQ824, Dacinostat] |  |  |  |  | utrophin protein levels in a separate assay (data not shown) [1]: failed to increase utrophin protein levels
11 | Cc1cc(C)cc(C(=O)NOCCCCCC(=O)NO)c1 [LMK-235] | 683 nM | 100 to 1000 nM | 43.40 | High | 
12 | CN(C)c1ccc(C(=O)NCCCCCCC(=O)NO)cc1 [M344] |  |  | 74.15 | 2.54 | EC50 [2, 6]: 3220 nM
13 | Cc1cc(O)c(-c2ccc([C@@H](C)CN)cc2)c2c1[nH]c(=O)c1sccc12.Cl [OTS514 hydrochloride] |  |  |  |  | utrophin protein levels in a separate assay (data not shown) [1]: failed to increase utrophin protein levels
14 | CCCCc1nc2cc(/C=C/C(=O)NO)ccc2n1CCN(CC)CC [Pracinostat] | 558 nM | 100 to 1000 nM | 56.37 | 59.25 | 
15 | Cn1cc(CNCC2CCN(c3ncc(C(=O)NO)cn3)CC2)c2ccccc21 [Quisinostat] |  |  |  |  | utrophin protein levels in a separate assay (data not shown) [1]: failed to increase utrophin protein levels
16 | O=C(CCCCCN1C(=O)c2cccc3cccc(c23)C1=O)NO [Scriptaid] | 2440 nM | > 1000 nM | 62.01 | High | 
17 | CC(C)Oc1ccc2c(=O)c(-c3ccccc3)coc2c1 [ipriflavone] |  | < 50 nM |  |  | 
18 | Abexinostat [PCI-24781] |  |  | 44.18 | 33.72 | Utrophin protein levels, fold increase [1]: 3.7 fold; EC50 [2, 6]: 138 nM
19 | Panobinostat |  |  | 22.06 | 9.21 | Utrophin protein levels, fold increase [1]: 1.9 fold; increase over the basal signal, counterscreening ([3]; FIG. 8, Panobinostat-treated vs untreated): 100 fold; signal (S), counterscreening ([3]; FIG. 8, basal about 400 RLUs): 25-40,000 RLUs; luciferase activity in the counterscreening assay [3]: significant luciferase activity; EC50 [2, 6]: 13 nM; increase of signal activity over basal signal, primary screening ([2]; FIG. 8, Panobinostat-treated vs untreated stable C2C12 cells): 4-6 fold; signal (S), primary screening ([2]; FIG. 8, basal about 20,000 RLUs): about 100,000 RLUs; activity in library screen (threshold 22.07% NPAc) ([2]; screened at 0.1 μM and 1 μM, 24 h): active at both concentrations
